Measurements from ChEMBL document CHEMBL3751703, “Structure-based design of a bisphosphonate 5(3)-deoxyribonucleotidase inhibitor” (Medchemcomm, 2015).

Legend:
[1] = biological target: 5'(3')-deoxyribonucleotidase, cytosolic type (Homo sapiens, UniProt Q8TCD5); experiment: Inhibition of N-terminal hexaHis-tagged human cytosolic 5'(3')-deoxynucleotidase using dUMP as substrate
[2] = biological target: 5'(3')-deoxyribonucleotidase, mitochondrial (Homo sapiens, UniProt Q9NPB1); experiment: Inhibition of N-terminal hexaHis-tagged human mitochondrial 5'(3')-deoxynucleotidase using dUMP as substrate
Homo sapiens = species on record: Homo sapiens; experiment: Selectivity ratio of Ki for N-terminal hexaHis-tagged human cytosolic 5'(3')-deoxynucleotidase to Ki for N-terminal hexaHis-tagged human mitochondrial 5'(3')-deoxynucleotidase

Sequence of 5'(3')-deoxyribonucleotidase, cytosolic type (Q8TCD5 whole entry): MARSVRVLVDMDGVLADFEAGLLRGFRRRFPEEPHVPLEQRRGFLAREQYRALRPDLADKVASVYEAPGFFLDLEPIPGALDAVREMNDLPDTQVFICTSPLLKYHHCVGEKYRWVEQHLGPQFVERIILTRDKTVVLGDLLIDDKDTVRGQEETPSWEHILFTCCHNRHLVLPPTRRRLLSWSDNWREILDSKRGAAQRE
Sequence of 5'(3')-deoxyribonucleotidase, mitochondrial (Q9NPB1 whole entry): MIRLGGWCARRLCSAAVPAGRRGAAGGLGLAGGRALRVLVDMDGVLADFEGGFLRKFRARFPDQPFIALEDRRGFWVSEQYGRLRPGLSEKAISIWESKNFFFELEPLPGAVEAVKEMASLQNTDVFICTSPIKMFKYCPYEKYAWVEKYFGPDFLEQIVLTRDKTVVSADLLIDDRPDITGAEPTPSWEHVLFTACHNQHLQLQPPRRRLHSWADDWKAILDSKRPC

Ki [1]: 21.7 µM
Ki [2]: 0.128 µM
Ratio Ki (Homo sapiens): 20
SMILES: O=c1[nH]c(=O)n([C@H]2C[C@H]3O[C@](c4ccccc4)(P(=O)(O)O)OC[C@H]3O2)cc1/C=C/P(=O)(O)O
